Source: US20060035907A1, “Methods of treating abnormal cell growth using c-MET and m-TOR inhibitors” (priority 2004, published 2006)

Legend:
[1] = test system: p70-S6K[Thr421/Ser424]; assay: Immunoblotting, phospho-p70-S6K[Thr421/Ser424] in TPR-MET transformed BaF3 cells; format: cell-based, murine; conditions: FIG. 4C
Experimental: (§1) Immunoblotting. Proteins were extracted from whole cells by lysing them in a Tris buffer (50 mM, pH 8.0) containing NaCl (150 mM), NP40 (1%, v/v), deoxycholic acid (0.5%, w/v), sodium dodecylsulfate (0.1%, w/v), NaF (1 mM), Na3VO4 (1 mM) and glycerol (10%, v/v) (Sigma, St. Louis, Mo.) supplemented with a protease inhibitor cocktail (complete, Roche, Indianapolis, Ind.). Polyclonal antibodies against p70-S6K (Biosource International, Camarillo, Calif.), total c-MET (C-12, Santa Cruz, Santa Cruz, Calif.), phosphatidylinositol-3′-kinase (Upstate Biotechnology, Lake Placid, N.Y.) and phosphorylated AKT[Ser473] or p70-S6K[Thr421/Ser424] (Cell Signaling, Beverly, Mass.), phospho-MET[Tyr1230/1234/1235] (Biosource International, Camarillo, Calif.) as well as phosphotyrosine (4G10, Upstate Biotechnology, Lake Placid, N.Y.) were used for immunoblotting.
(§2) Referring to FIG. 4, phosphorylation of cellular proteins was determined by immunoblotting in whole cell lysate as indicated using anti-phosphotyrosine antibody (4G10) (A), total c-MET antibody, anti-pY1230/1234/1235-MET antibody (recognizing the corresponding pY361/365/366 sites in TPR-MET), anti-pY1349-MET (recognizing the pY480 site in TPR-MET) and anti-pY1365-MET (recognizing the pY496 site in TPR-MET) phospho-antobodies (B), and phospho-AKT and phospho-S6K antibodies (C). […]

[2] = test system: TPR-MET transformed BaF3 cells; assay: Cell cycle analysis (propidiumiodide, FACS); format: cell-based, murine; conditions: 18 h
Experimental: Cell cycle analysis. Fixed cells were stained with propidiumiodide and cell cycle parameters analyzed by FACS analysis.
(§3) Referring to FIG. 2, TPR-MET transformed BaF3 cells were treated for 18 h with either DMSO or the indicated amount of PHA665752 (n=3). A: Annexin V and propidiumiodide staining was determined by flow cytometry. B: Activity of caspase-3 was determined in cell lysate (n=3). C: The percentage of cells in different cell cycle phases was determined by flow cytometry after propidiumiodide staining (n =3).

[3] = test system: TEL-PDGFFBR transformed BaF3 cells; assay: Cell growth of TEL-PDGFFBR transformed BaF3 cells; format: cell-based, murine; conditions: 0.2 μM, 18 hours, FIG. 1C
Experimental: (§4) Cells. The murine pre-B cell line BaF3 was grown in RPMI 1640 containing 10% fetal calf serum and 10% WEHI-conditioned medium as a source of murine IL-3. BaF3 cell lines transfected with a BCR/ABL, TEUABL, TEUJAK2, or TEUPDGFβR cDNA were grown in the absence of growth factors. A TPR/MET expressing BaF3 cell line was generated by transfection of an expression vector containing the TPR/MET cDNA as previously described (Sattler, M., Pride, Y. B., Ma, P., Gramlich, J. L., Chu, S. C., Quinnan, L. A., Shirazian, S., Liang, C., Podar, K., Christensen, J. G. & Salgia, R. (2003). Cancer Res, 63, 5462-9.). The number of viable cells after treatment with DMSO or PHA665752 was determined using an MTT assay (In Vitro Toxicology Assay Kit, Sigma, St. Louis, Mo.) or trypan blue exclusion.
(§5) Referring to FIG. 1, BaF3 cells lines transformed by tyrosine kinase oncogenes were used to determine cell growth (A-C) or transwell migration (D) in response to the small molecule c-MET kinase inhibitor PHA665752. A: The relative growth of BaF3 cells transformed by TPR-MET in response to different concentrations of PHA665752 was determined after 18 h (n=3). […] D: Cells were treated for 18 hr with the indicated dose of PHA665752 and the spontaneous transwell migration relative to DMSO-treated cells determined (n=4).

[4] = molecular target: T1, TPR-MET (Homo sapiens, UniProt P08581); assay: Immunoblotting, TPR-MET autophosphorylation with phosphospecific antibodies; format: cell-based; conditions: TPR-MET transformed BaF3 cells, FIG. 4B
T1 construct: TPR portion (fusion partner, nucleoprotein TPR; human entry would be P12270); expressed in transfected cells; host or cells: BaF3 (murine pre-B cell line); the other entry of the earlier key: TPR (P12270, Nucleoprotein TPR)
Experimental: as §1, §2

[5] = test system: AKT[Ser473]; assay: Immunoblotting, phospho-AKT[Ser473] in TPR-MET transformed BaF3 cells; format: cell-based, murine; conditions: FIG. 4C
Experimental: as §1, §2

[6] = test system: tyrosine phosphorylation of cellular proteins in BaF3.TPR-MET cells; assay: Immunoblotting, tyrosine phosphorylation of cellular proteins in BaF3.TPR-MET cells; format: cell-based, murine; conditions: anti-phosphotyrosine antibody (4G10), FIG. 4A
Experimental: as §1, §2

[7] = test system: caspase-3; assay: Caspase-3 activity in cell lysates; format: cell-based, murine; conditions: compared to DMSO treated cells, 18 h, n=3, p<0.03
Experimental: (§6) Apoptosis assays. The activity of caspase-3-was measured in cell lysates (CaspACE Assay System, Promega) and Annexin V positive staining was determined by FACS analysis (Annexin-V-Fluos Staining Kit, Roche Diagnostics) according to the manufacturer's directions in cells that were either treated with PHA665752 or the solvent DMSO.
as §3

[8] = test system: parental BaF3 cells; assay: Cell growth of IL-3 stimulated parental BaF3 cells; format: cell-based, murine; conditions: 0.2 μM, 72 hour culture (data not shown)
[9] = test system: TEL-JAK2 transformed BaF3 cells; assay: Cell growth of TEL-JAK2 transformed BaF3 cells; format: cell-based, murine; conditions: 0.2 μM, 18 hours, FIG. 1C
Experimental: as §4, §5

[10] = test system: BaF3.TPR-MET cells; assay: Transwell migration assay; format: cell-based, murine; conditions: Mus musculus, compared to DMSO treated cells, n=4, read-out: inhibition of the cell migration
Experimental: (§7) Referring to FIG. 1, BaF3 cells lines transformed by tyrosine kinase oncogenes were used to determine cell growth (A-C) or transwell migration (D) in response to the small molecule c-MET kinase inhibitor PHA665752. A: The relative growth of BaF3 cells transformed by TPR-MET in response to different concentrations of PHA665752 was determined after 18 h (n=3). B: TPR-MET transformed BaF3 cells were either left untreated (♦) or treated (▴) with PHA665752 (1 μM) for the indicated time in the presence or absence of IL-3 (n=3). C: BaF3 cells transformed by tyrosine kinase oncogenes were treated for 18 h with PHA665752 (1 μM) (n=3). D: Cells were treated for 18 hr with the indicated dose of PHA665752 and the spontaneous transwell migration relative to DMSO-treated cells determined (n=4).

[11] = test system: TEL-ABL transformed BaF3 cells; assay: Cell growth of TEL-ABL transformed BaF3 cells; format: cell-based, murine; conditions: 0.2 μM, 18 hours, FIG. 1C
Experimental: as §4, §5

[12] = test system: TPR-MET transformed BaF3 cells; assay: Cell growth of TPR-MET transformed BaF3 cells (MTT assay or trypan blue exclusion); format: cell-based, murine
Experimental: as §4, §7
Referring to FIG. 5, the relative growth of BaF3 cells transformed by TPR-MET in response to different concentrations of rapamycin (0.01 nM to 10 nM) was determined in the presence (▴) or absence (▪) of PHA665752 (0.5 μM) after a 3 day culture (n=3).

[13] = test system: tyrosine phosphorylation of cellular proteins in BCR-ABL transformed BaF3 cells; assay: Immunoblotting, tyrosine phosphorylation of cellular proteins in BCR-ABL transformed BaF3 cells; format: cell-based, murine; conditions: BCR-ABL transformed BaF3 cells (data not shown)
Experimental: as §1

[14] = test system: BCR-ABL transformed BaF3 cells; assay: Cell growth of BCR-ABL transformed BaF3 cells; format: cell-based, murine
Experimental: as §4, §5

[15] = test system: TPR-MET transformed BaF3 cells; assay: Apoptosis assay, Annexin V / propidiumiodide staining by FACS; format: cell-based, murine; conditions: 0.2 µM, 18 h
Experimental: as §6, §3

T1 sequence (P08581 with tags, fused parts or gaps): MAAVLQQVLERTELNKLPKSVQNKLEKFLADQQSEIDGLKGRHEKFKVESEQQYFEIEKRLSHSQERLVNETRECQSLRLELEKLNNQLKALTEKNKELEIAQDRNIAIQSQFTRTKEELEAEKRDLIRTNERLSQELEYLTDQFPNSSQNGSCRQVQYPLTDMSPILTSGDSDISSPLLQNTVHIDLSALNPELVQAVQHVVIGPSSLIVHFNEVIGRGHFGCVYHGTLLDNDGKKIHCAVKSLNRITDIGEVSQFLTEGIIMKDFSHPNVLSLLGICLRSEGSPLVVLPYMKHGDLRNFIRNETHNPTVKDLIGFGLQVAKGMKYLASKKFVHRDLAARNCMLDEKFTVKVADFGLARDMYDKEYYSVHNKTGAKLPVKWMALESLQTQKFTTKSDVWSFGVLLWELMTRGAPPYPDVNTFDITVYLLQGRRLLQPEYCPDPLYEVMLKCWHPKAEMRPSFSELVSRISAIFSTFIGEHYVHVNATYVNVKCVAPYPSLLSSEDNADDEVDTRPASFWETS

Cc1[nH]c(/C=C2\C(=O)Nc3ccc(S(=O)(=O)Cc4c(Cl)cccc4Cl)cc32)c(C)c1C(=O)N1CCC[C@@H]1CN1CCCC1 [PHA665752, (3Z)-5-[(2,6-dichlorobenzyl)sulfonyl]-3-[(3,5-dimethyl-4-{[(2R)-2-(pyrrolidin-1-ylmethyl)pyrrolidin-1-yl]carbonyl}-1H-pyrrol-2-yl)methylene]-1,3-dihydro-2H-indol-2-one]
phosphorylation of the mTOR substrate p70-S6K[Thr421/Ser424] [1]: reduced phosphorylation | percentage of cells in G2/M-phase ([2]; 0.2 μM, DMSO 12.2%): 5.5% | percentage of cells in G1-phase ([2]; 0.2 μM, DMSO 42.4%): 77.0% | percentage of cells in S-phase ([2]; 0.2 μM, DMSO 45.4%): 17.5% | cells in sub-G1-phase ([2]; consistent with apoptotic cells): increase of cells in sub-G1-phase | inhibition of cell growth [3]: did not inhibit cell growth | autophosphorylation in the catalytic tyrosine kinase domain at Tyr361/365/366, Tyr480 and Tyr496 [4]: inhibits autophosphorylation | serine phosphorylation of AKT[Ser473] [5]: reduced serine phosphorylation | tyrosine phosphorylation of cellular proteins [6]: reduced tyrosine phosphorylation of cellular proteins in a dose dependent manner | increase in caspase-3 activity [7]: 3.5±0.7 fold | growth inhibitory effect [8]: did not observe a significant growth inhibitory effect | inhibition of cell growth [9]: did not inhibit cell growth | inhibition at 0.2 µM [10]: 92.5 ± 3% | inhibition of cell growth [11]: did not inhibit cell growth | effect on cell growth in the absence of IL-3 ([12]; BaF3.TPR-MET, absence of IL-3, 72 hour culture, PHA665752 (1 μM) per FIG. 1B legend): completely blocked cell growth | IC50 ([12]; Mus musculus, BaF3.TPR-MET cells, after 18 h, FIG. 1A, read-out: IC50, inhibition of cell growth): < 0.06 µM | effect on cell growth in the presence of IL-3 ([12]; TPR-MET transformed cells, presence of IL-3, 72 hour culture, PHA665752 (1 μM) per FIG. 1B legend): only little effect on cell growth | tyrosine phosphorylation of cellular proteins [13]: did not alter tyrosine phosphorylation of cellular proteins | inhibition of cell growth ([14]; 0.2 μM, 18 hours, BCR-ABL transformed BaF3 cells, FIG. 1C): did not inhibit cell growth | effect on cell growth in the presence of IL-3 ([14]; BCR-ABL transformed cells, control experiment, presence of IL-3, 72 hour culture, FIG. 1B): only little effect on cell growth | cells in early apoptosis (Annexin V positive) [15]: 13.9±1.0% | cells in late apoptosis (Annexin V plus propidiumiodide positive) [15]: 19.2±1.8% | number of apoptotic cells (of total population) ([15]; control cells 5%): 33.1%
